Measured values as given in patent US8637511B2, “Aminopyrimidines useful as kinase inhibitors” (Vertex Pharmaceuticals Incorporated, priority 2005, dated 2014).
pIC50, pKi: −log10 of the molar value. Read-outs that look alike come from different tables or passages of the source.

Tests used:
human Itk kinase = molecular target: T1, human Itk kinase (Homo sapiens, UniProt Q08881); assay: Itk inhibition assay: radioactivity-based assay; format: biochemical; settings: Ki(app)
T1 sequence (Q08881 1-620): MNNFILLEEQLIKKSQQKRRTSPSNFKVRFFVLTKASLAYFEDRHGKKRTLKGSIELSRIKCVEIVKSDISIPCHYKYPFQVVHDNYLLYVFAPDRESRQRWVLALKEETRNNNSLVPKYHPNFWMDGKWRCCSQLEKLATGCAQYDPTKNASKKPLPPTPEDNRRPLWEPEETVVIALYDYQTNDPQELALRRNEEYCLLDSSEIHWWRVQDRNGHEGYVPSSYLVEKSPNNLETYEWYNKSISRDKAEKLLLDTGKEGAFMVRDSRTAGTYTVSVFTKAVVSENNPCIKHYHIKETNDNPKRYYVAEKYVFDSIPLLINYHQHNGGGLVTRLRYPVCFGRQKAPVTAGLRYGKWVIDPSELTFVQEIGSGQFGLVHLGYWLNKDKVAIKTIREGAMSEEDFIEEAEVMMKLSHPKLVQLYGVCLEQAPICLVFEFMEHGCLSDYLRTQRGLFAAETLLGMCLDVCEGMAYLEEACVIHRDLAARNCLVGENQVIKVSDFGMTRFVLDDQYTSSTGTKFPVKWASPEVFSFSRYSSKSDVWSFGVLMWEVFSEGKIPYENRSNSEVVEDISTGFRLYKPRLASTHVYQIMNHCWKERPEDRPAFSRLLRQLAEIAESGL
Procedure: The compounds of the present invention were evaluated as inhibitors of human Itk kinase using a radioactivity-based assay. These compounds can also be evaluated using a spectrophotometric or alphascreen assay.
Assays were carried out in a mixture of 20 mM MOPS (pH 7.0), 10 mM MgCl2, 0.1% BSA and 1 mM DTT. Final substrate concentrations in the assay were 7.5 μM [γ-^33P]ATP (400 μCi ^33P ATP/μmol ATP, Amersham Pharmacia Biotech/Sigma Chemicals) and 3 μM peptide (SAM68 protein Δ332-443). Assays were carried out at 25° C. in the presence of 50 nM Itk. An assay stock buffer solution was prepared containing all of the reagents listed above, with the exception of ATP and the test compound of interest. 50 μL of the stock solution was placed in a 96 well plate followed by addition of 2 μL of DMSO stock containing serial dilutions of the test compound (typically starting from a final concentration of 50 μM with 2-fold serial dilutions) in duplicate (final DMSO concentration 2%). The plate was pre-incubated for 10 minutes at 25° C. and the reaction initiated by addition of 50 μL [γ-^33P]ATP (final concentration 7.5 μM).
The reaction was stopped after 10 minutes by the addition of 100 μL 0.2M phosphoric acid+0.01% TWEEN 20. A multiscreen phosphocellulose filter 96-well plate (Millipore, Cat no. MAPHNOB50) was pretreated with 100 μL 0.2M phosphoric acid+0.01% TWEEN 20 prior to the addition of 170 μL of the stopped assay mixture. The plate was washed with 4×200 μL 0.2M phosphoric acid+0.01% TWEEN 20. After drying, 30 μL Optiphase ‘SuperMix’ liquid scintillation cocktail (Perkin Elmer) was added to the well prior to scintillation counting (1450 Microbeta Liquid Scintillation Counter, Wallac).
Ki(app) data were calculated from non-linear regression analysis of the initial rate data using the Prism software package (GraphPad Prism version 3.0cx for Macintosh, GraphPad Software, San Diego Calif., USA).

Colo205 cells = assay: Analysis of cell proliferation and viability; format: cell-based; settings: Homo sapiens, read-out: IC50 value
FLT-3 = molecular target: T2, FLT-3 (Homo sapiens, UniProt P36888); assay: FLT-3 inhibition assay, radiometric filter-binding; format: biochemical
T2 sequence (P36888 27-993): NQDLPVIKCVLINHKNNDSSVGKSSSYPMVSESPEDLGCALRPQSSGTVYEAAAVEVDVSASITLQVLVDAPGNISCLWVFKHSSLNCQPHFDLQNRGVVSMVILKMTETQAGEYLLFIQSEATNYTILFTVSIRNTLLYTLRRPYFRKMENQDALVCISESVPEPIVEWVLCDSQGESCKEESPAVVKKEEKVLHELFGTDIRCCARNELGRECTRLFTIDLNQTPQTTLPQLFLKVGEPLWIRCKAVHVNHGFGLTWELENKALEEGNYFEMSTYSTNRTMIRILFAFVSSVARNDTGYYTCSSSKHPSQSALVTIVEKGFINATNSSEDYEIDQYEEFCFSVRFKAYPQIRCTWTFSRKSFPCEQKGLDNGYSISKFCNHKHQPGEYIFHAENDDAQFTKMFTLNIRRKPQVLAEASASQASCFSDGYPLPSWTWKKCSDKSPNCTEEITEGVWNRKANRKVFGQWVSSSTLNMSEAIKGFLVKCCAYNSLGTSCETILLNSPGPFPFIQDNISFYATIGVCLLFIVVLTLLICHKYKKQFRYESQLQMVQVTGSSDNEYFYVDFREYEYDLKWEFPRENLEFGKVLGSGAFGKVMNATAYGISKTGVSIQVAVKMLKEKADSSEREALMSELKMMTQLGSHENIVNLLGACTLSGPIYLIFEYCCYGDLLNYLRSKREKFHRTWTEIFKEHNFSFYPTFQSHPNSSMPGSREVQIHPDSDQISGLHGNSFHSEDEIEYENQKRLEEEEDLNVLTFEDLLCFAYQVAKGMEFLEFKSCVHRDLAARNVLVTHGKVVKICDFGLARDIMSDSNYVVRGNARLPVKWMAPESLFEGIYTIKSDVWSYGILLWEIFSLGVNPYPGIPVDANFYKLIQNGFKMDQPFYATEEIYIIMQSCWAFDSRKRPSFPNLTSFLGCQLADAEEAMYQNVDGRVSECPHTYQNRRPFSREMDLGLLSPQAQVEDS
Procedure: This assay monitors the 33P incorporation into a substrate poly(Glu, Tyr) 4:1 (pE4Y). […] Final substrate concentrations in the assay were 90 μM ATP and 0.5 mg/ml pE4Y (both from Sigma Chemicals, St. Louis, Mo.). […] Reactions were carried out at room temperature.
Two assay solutions were prepared. Solution 1 contains 100 mM HEPES (pH 7.5), 10 mM MgCl2, 25 mM NaCl, 1 mg/ml pE4Y and […] (containing 0.3 mCi of [γ-33^P]ATP for each reaction). Solution 2 contains 100 mM HEPES (pH 7.5), 10 mM MgCl2, 25 mM NaCl, 2 mM DTT, 0.02% BSA and 3 nM FLT-3. The assay was run on a 96 well plate by mixing 50 μl each of Solution 1 and […] of the compounds of the present invention. The reaction was initiated with Solution 2. […] All of the reaction volume was then transferred to a filter plate and washed with 5% TCA by a Harvester 9600 from TOMTEC (Hamden, Conn.). The amount of ^33P incorporation into pE4y was analyzed by a Packard Top Count Microplate Scintillation Counter (Meriden, Conn.). The data was fitted using Prism software to get an IC50 or Ki.

JAK3 = molecular target: T3, JAK3 (Homo sapiens, UniProt P52333); assay: biochemical
T3 sequence (P52333 1-1124): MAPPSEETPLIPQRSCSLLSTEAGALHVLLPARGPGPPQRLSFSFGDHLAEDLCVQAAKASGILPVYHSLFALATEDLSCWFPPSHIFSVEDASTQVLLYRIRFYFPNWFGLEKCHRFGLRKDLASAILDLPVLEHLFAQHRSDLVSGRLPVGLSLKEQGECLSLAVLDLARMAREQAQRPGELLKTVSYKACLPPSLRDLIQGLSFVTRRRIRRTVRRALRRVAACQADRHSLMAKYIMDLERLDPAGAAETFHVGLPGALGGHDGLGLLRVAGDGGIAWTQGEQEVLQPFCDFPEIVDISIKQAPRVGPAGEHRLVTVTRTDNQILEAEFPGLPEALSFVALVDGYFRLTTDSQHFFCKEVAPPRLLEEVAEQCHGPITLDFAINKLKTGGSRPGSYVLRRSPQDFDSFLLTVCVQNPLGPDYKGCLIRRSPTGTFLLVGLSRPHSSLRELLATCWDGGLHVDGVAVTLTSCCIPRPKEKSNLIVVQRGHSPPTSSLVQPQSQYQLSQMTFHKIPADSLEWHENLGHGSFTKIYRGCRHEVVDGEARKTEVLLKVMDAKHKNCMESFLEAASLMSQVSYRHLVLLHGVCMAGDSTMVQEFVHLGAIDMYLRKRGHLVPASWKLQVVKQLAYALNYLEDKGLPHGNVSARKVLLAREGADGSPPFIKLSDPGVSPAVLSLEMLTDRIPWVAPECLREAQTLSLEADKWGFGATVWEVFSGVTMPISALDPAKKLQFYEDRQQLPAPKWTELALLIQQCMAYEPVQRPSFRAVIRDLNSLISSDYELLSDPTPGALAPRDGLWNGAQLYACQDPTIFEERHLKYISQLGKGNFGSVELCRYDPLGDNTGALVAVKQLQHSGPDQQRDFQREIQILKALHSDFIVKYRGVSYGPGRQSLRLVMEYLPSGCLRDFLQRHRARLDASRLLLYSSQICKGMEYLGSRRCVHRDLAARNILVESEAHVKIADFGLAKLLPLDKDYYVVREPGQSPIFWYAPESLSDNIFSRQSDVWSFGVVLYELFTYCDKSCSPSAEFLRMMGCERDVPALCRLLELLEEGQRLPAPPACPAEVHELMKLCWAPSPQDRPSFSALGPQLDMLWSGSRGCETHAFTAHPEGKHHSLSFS

Aurora-1 (Aurora B) = Aurora-1 (Aurora B) (Homo sapiens, UniProt Q96GD4); assay: Aurora-1 (Aurora B) inhibition assay (radiometric); format: biochemical; settings: read-out: Aurora B kinase Ki value
Outline: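 Radiometric ^33P incorporation into peptide substrate, with [γ-^33P]-ATP at 800 μM final, in 25 mM HEPES pH 7.5, 10 mM MgCl2, 0.1% BSA, 10% glycerol. Compound preincubated with enzyme for 10 min at 25° C, reaction run 3 h, then captured on phosphocellulose. Ki from initial rates by non-linear regression after background subtraction.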

Aurora-2 (Aurora A) = molecular target: T4, Aurora-2 (Aurora A) (Homo sapiens, UniProt O14965); assay: Aurora-2 (Aurora A) inhibition assay, coupled enzyme; format: biochemical; settings: read-out: Aurora A kinase Ki value
T4 sequence (O14965 1-403): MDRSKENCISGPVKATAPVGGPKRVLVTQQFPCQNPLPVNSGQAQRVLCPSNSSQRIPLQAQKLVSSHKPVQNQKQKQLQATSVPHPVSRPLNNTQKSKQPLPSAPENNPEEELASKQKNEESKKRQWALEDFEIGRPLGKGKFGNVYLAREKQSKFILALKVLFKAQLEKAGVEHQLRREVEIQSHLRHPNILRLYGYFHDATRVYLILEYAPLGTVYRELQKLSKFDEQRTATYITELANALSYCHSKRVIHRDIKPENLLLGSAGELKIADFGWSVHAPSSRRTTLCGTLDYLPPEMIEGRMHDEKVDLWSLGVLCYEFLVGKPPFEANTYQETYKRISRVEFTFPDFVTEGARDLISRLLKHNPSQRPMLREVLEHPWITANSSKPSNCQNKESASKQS
Outline: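 Coupled pyruvate kinase/lactate dehydrogenase assay with NADH in pH 7.5 Hepes containing MgCl2, DTT and NaCl, using 40 nM Aurora-2 at 30 °C. After a 10 min preincubation, enzyme addition started the reaction, and initial rates were taken over 10 min. IC50 and Ki came from non-linear regression.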

[1] = COLO 205, Colo205 cells, incubated for 96 hours
[2] = COLO 205, Colo205 cells, incubated for 72 hours

Aurora-1 (Aurora B), sequence (Q96GD4 whole entry): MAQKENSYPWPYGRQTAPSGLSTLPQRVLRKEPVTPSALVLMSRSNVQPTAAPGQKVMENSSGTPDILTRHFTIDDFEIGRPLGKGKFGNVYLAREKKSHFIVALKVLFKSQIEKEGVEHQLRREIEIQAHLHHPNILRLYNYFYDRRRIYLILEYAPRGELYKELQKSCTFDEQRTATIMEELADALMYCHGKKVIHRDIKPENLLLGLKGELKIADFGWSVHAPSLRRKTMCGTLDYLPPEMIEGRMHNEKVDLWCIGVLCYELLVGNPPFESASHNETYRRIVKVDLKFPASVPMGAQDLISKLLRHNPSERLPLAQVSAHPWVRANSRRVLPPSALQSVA

SMILES | pKi (human Itk kinase) | pIC50 (Colo205 cells; [1]) | pKi (FLT-3) | pIC50 (Colo205 cells; [2]) | pKi (JAK3) | pKi (Aurora-1 (Aurora B)) | other results
Cc1cc(Nc2cc(N3CCC3)nc(Sc3ccc(NC(=O)c4c(F)cccc4F)cc3)n2)n[nH]1 [Compound 7] | ≥ 7.00 | ≥ 7.30 | – | – | – | – | –
Cc1cc(Nc2cc(N3CCC3)nc(Sc3ccc(NC(=O)c4cc(Cl)ccc4Cl)cc3)n2)n[nH]1 [Compound 163] | 6.00 to 7.00 | 6.00 to 7.30 | – | – | – | – | –
Cc1cc(Nc2cc(N3CCC3)nc(Sc3ccc(NC(=O)c4cccc(Cl)c4)cc3)n2)n[nH]1 [Compound 53] | 6.00 to 7.00 | 6.00 to 7.30 | – | – | – | – | –
Cc1cc(Nc2cc(CN3CCC3)nc(Sc3ccc(NC(=O)c4ccccc4C(F)(F)F)cc3)n2)[nH]n1 [Compound 132] | – | 6.00 to 7.30 | 6.00 to 6.82 | < 6.70 | 5.70 to 6.30 | 7.30 to 8.00 | –
Cc1cc(Nc2cc(N3CCC3)nc(Sc3ccc(N(C)C(=O)c4c(F)cccc4F)cc3)n2)n[nH]1 [Compound 11] | – | 6.00 to 7.30 | 6.00 to 6.82 | – | 6.30 to 8.00 | 5.70 to 7.30 | –
Cc1cc(Nc2cc(N3CCC3)nc(Sc3ccc(NC(=O)c4ccccc4OC(F)(F)F)cc3)n2)n[nH]1 [Compound 34] | 6.00 to 7.00 | – | – | – | – | – | pIC50 (Colo205 cells; COLO 205, 96 h): 6.00 to 7.30
Cc1cc(Nc2cc(N3CC(F)(C4CC4)C3)nc(Sc3ccc4ccn(CC(F)(F)F)c(=O)c4c3)n2)[nH]n1 [Compound 189] | – | – | 6.82 to 7.30 | < 6.70 | – | 5.70 to 7.30 | pKi (JAK3; read-out: JAK3 Ki value): 6.30 to 8.00
Cc1cc(Nc2cc(N3CCC3)nc(Sc3ccc(NC(=O)C4(C(F)(F)F)CC4)cc3)n2)[nH]n1 [Compound 142] | – | – | – | 6.70 to 7.52 | – | ≥ 8.00 | pKi (FLT-3; read-out: FLT-3 Ki value): 6.00 to 6.82; pKi (Aurora-2 (Aurora A)): 8.30 to 9.00
Cc1cc(Nc2cc(N3CC(N4CCOCC4)C3)nc(Sc3ccc4nc(C(F)(F)F)n(C)c4c3)n2)[nH]n1 [Compound 195] | – | – | 6.00 to 6.82 | 6.70 to 7.52 | 6.30 to 8.00 | ≥ 8.00 | –
